“Also recorded” adds a separate entry of the source. Read-outs that look alike come from different tables or passages of the source. One block for each molecule: values may come before it.
Experiments:
herpes simplex (HSV-1) = assay: Preliminary in vitro HSV-1 infectivity study in 10% human serum; assay type: cell-based; settings: irradiation at 767 nm
Description: (§1) In summary, the new metallotexaphrin complexes discussed here show three important optical properties which make them unique among existing porphyrin-like macrocycles. They absorb strongly in a physiologically important region (i.e. 730-770 nm), form long-lived triplet states in high yield, and act as efficient photosensitizers for the formation of singlet oxygen (see, e.g. FIG. 21).

lymphocyte = assay: Preliminary in vitro lymphocyte mitogenic activity study in 10% human serum; assay type: cell-based; settings: irradiation at 767 nm
Description: as §1

[1] = Optical and photophysical properties of metallotexaphyrins (laser flash photolysis, fluorescence, singlet oxygen luminescence); assay type: physicochemical; parameters: tt (triplet lifetime): unit not given here; settings: CH3 OH
Description: Finally, several complexes containing paramagnetic metal ions (e.g. Mn^II, Sm^III, and Eu^III, structures 5c -7c) were investigated.
Comparison of the initial intensity with that obtained using tetrakis (4-hydroxyphenyl)porphyrin (THPP) as photosensitizer^3b under identical conditions allowed calculation of the quantum yields for production of singlet oxygen (^.phi. 1.cndot.2).

[2] = Cytotoxicity in the absence of light; assay type: cell-based; settings: preliminary
Description: In addition, some preliminary toxicity and stability information will begin to emerge from these in vitro experiments.

HSV-1 = assay: Preliminary in vitro photo-killing of HSV-1 infectivity; assay type: cell-based
Description: (§2) Several preliminary in vitro biological studies have been carried out with the cadmium(II) complexes of the 18 and 22 π-electron texaphyrins 14D and 5D. […] This latter result, in particular, augurs well for the eventual use of these materials in prophylactic photodynamic anti-AIDS blood-treatment programs. The 2 log decrease in HSV-1 activity achieved with the texaphyrin systems studied to date is not yet sufficient to completely design a viable protocol: Both HPD and PII, as well as sapphyrin (6D) , reprepared by literature methods^70 provide about a 5 log decrease in viral activity under similar light fluence when irradiated at the appropriate lowest energy transition (630 and 690 nm, respectively). Although a mechanistic comparison with the incompletely characterized hematoporphyrin-derived systems is difficult, a direct structural correspondence exists between the tripyrroledimethine-derived cadmium(II) texaphyrin and free-base sapphyrin systems: The main difference is in overall charge on the photosensitizer. It may thus be that these two macrocycle types are bound to the virus envelope in a different manner; perhaps the sapphyrin "intercalates" into the lipid layer and the charged metallotexaphyrin sits on the surface of the membrane and as such could suffer from deleterious aggregations (which would lower singlet oxygen production).

lymphocytes = assay: Localization on lymphocytes by absorption and emission measurements; assay type: cell-based
Description: as §2

[3] = Stability in methanol/water or water (decomplexation, decomposition)
[4] = Imine hydrolysis half-life by pH
[5] = 1:1 methanol/water
[6] = Stability of free-base macrocycle; assay type: physicochemical
[7] = tested on: rapidly growing tissues including sarcomas and carcinomas; settings: in vivo; cited from earlier work
[8] = Stability to demetallation (sulfide, thiosulfate); assay type: physicochemical; settings: aqueous Na2 S / excess sulfide anion
Description: The above K1 and K2 (or K1 K2) values are predicated on the assumption that the cadmium complexes under discussion are stable with regards to demetallation and that the equilibria of equations 1 and 2 (or 3) pertain under the conditions of base binding. The first of these concerns is readily apparent: If demetallation occurs, then obviously one is not studying base binding! […] The second concern is particularly important within the context of quantitative work: If, for instance, the starting complex 3.cndot.NO3 is not rigorously five coordinate, then K1 (and perhaps K2 as well) would represent an axial ligand displacement reaction rather than a pure addition process as implied above. Control experiments indicate that the assumption of initial five coordination is reasonable: Independent titrations of 3A .cndot.NO3 with NH4 NO3 and H2 O indicate that only modest and monotonic changes in the chemical shift of the "meso" signals take place over the course of adding ≥50 equivalents of these potentially adventitious ligands.^40 This means that either "complete" binding occurs at 1:1 stoichiometry (essentially ruled out in the case of H2 O on the basis of analytical data), or that these species are poorly coordinating in CHCl3 so that five coordination pertains about cadmium; the latter interpretation appearing more likely.
Attempts to demetallate complex 3A .cndot.NO3 were made. In an effort to obtain the free sp^2 bridged ligand 2A, the above complex in chloroform was stirred for several hours in the presence of sodium sulfide and independently with sodium thiosulfate. […] In the case of sodium sulfide, this critical conclusion was further supported by FAB MS: Other than the starting cationic complex 3A, no evidence was obtained for any moderate to high molecular weight volatile products in the mass spectrum. […] The rate of this process, however, is strongly pH dependent, the half-life being, for instance, on the order of several hours in the presence of ca. 0.1N HCl.

[9] = benzene, cited from earlier work
[10] = tested on: enveloped viruses (HSV-1, cytomegalovirus, measles virus, HIV-1); settings: previous studies; cited from earlier work

Molecule: CCC1=C(C)c2cnc3ccccc3ncc3nc(cc4[n-]c(cc1n2)c(CC)c4CC)C(CC)=C3C.O=[N+]([O-])[O-].[Cd+2] [3C NO3]
HSV-1 infectivity (herpes simplex (HSV-1)): significant decrease | lymphocyte mitogenic activity (lymphocyte): significant decrease | Emission gmax [1]: 780 nm | S (= phi 1O2 / phi t) [1]: 0.78 | tt (triplet lifetime) ([1]; deoxygenated): 55 | Absorption gmax (Soret-type band) ([1]; first value (Soret)): 417 nm | Absorption gmax (Q-type band) ([1]; second value (Q-type)): 759 nm | Dt (triplet quantum yield) ([1]; ±5%): 0.88 | D^1 O2 (singlet oxygen quantum yield) ([1]; ±10%): 0.69 | Df (fluorescence quantum yield) ([1]; ±10%): 0.011

Molecule: CCC1=C(C)c2cnc3ccccc3ncc3nc(cc4[nH]c(cc1n2)c(CC)c4CC)C(CC)=C3C [5D]
general cytotoxicity [2]: nor, fortunately, do they show much evidence of general cytotoxicity in the absence of light | photo-killing of HSV-1 infectivity (HSV-1; 20 J/cm^2 at lowest energy absorption (690 nm for 14D, 767 nm for 5D)): ca. 2 log | dark antiviral activity (HSV-1; dark): neither 5D nor 14D show any appreciable dark antiviral activity | localization on lymphocytes (lymphocytes): localize selectively on lymphocytes

Molecule: CCc1c(CC)c2cc3nc(cc4[nH]c(c(C)c4CC)c4[nH]c(cc5nc(cc1[nH]2)C(CCC(=O)N(CCO)CCO)=C5C)c(CC)c4C)C(C)=C3CCC(=O)N(CCO)CCO [6D, reference compound]
decrease in viral activity (HSV-1; similar light fluence, at lowest energy transition (630 and 690 nm, respectively)): ~5 log

Molecule: CCC1=C(C)c2cnc3ccccc3ncc3nc(cc4[n-]c(cc1n2)c(CC)c4CC)C(CC)=C3C.[In+3] [In^3+ complex of texaphyrin]
hydrolytic stability (in words) [3]: kinetically and hydrolytically stable | half-lives for decomplexation and/or ligand decomposition ([3]; 1:1 methanol-water): exceed 3 weeks

Molecule: CCC1=C(C)c2cnc3ccccc3ncc3nc(cc4[n-]c(cc1n2)c(CC)c4CC)C(CC)=C3C.[Cd+2] [cadmium(II) complex of 5D]
general cytotoxicity [2]: not appreciable cytotoxic

Molecule: CCC1=C(C)c2cnc3ccccc3ncc3nc(cc4[n-]c(cc1n2)c(CC)c4CC)C(CC)=C3C.[Cd+2] [complex 2B]
half-life for imine hydrolysis ([4]; pH 2): several hours | half-life for imine hydrolysis ([4]; pH 7): > 30 days

half-life [5]: over 5 weeks | half-life for decomplexation and/or decomposition [5]: ≥ 100 days | bleaching of the Soret and Q-type bands ([5]; 336 h, 35 µM): less than 10% | half-life for imine hydrolysis (pH 2): several hours | half-life for imine hydrolysis (pH 7): > 30 days
Molecule: CCC1=C(C)C2=[N+]3C1=Cc1c(CC)c(CC)c4[n]1[Gd-2]315[N+](=C2)c2cc(C)c(C)cc2[N+]1=CC1=[N+]5C(=C4)C(CC)=C1C.[OH-].[OH-] [complex 7B]

Molecule: CCC1=C(C)c2cnc3ccccc3ncc3nc(cc4[nH]c(cc1n2)c(CC)c4CC)C(CC)=C3C [compound 2, 4,5,9,24-tetraethyl-10,23-dimethyl-13,20,25,26,27-pentaazapentacyclo [20.2.1.1^3,6.1^8,11.0^14,19] heptacosa-1,3,5,7,9,11(27), 12,14,16,18,20,22 (25),23-tridecaene]
stability of free-base relative to compound 1 [6]: undergoes decomposition far more slowly than compound 1

Molecule: CC1=C(CCC(=O)O)c2cc3[nH]c(cc4nc(cc5[nH]c(cc1n2)c(C)c5C(C)O)C(C)=C4C(C)O)c(C)c3CCC(=O)O (stereo not shown) [hematoporphyrin]
localization in rapidly growing tissues [7]: localize selectively in rapidly growing tissues including sarcomas and carcinomas

Molecule: cadmium tetraphenyl porphyrin [CdTPP, reference compound]
demetallation by sulfide [8]: serves to demetallate CdTPP; also recorded: leads to cation loss and precipitation of CdS | Kd ([9]; 29.9°, read-out: K1 (single pyridine axial ligand) (converted)): ~370 µM | formation of bisligated species ([9]; pyridine-containing): no evidence for the formation of a bisligated CdTPP-(pyr)2

Molecule: dihematoporphyrin ether [DHE]
inactivation of viruses [10]: only those viruses studied which are enveloped or possess a membraneous coat are inactivated

Source: patent publication US5587463A, “Texaphyrin macrocycles and metal complexes thereof” (Board of Regents, The University of Texas System, priority 1994, dated 1996)
